Experimental data published in patent US20130156753A1 (UNIVERSITY OF ROCHESTER, priority 2010, published 2013).
No end group written: not given here.

What was measured:
HDAC5 nuclear export [1] = assay: PMA-induced GFP-HDAC5 nuclear export in Cos7 cells (fluorescence microscopy); type: cell-based; conditions: for PMA-induced HDAC5 nuclear export: GFP-HDAC5-WT, pretreatment, then PMA for 3 hours
Procedure: (§1) A, B, Cos7 cells were co-transfected with expression vectors encoding GFP-tagged HDAC5 (GFP-HDAC5) and constitutively active protein kinases as indicated, and then exposed to phorbol-12-myristate-13-acetate (PMA, […]) for 3 hours. […] A-F, The cells were fixed and the subcellular localization of GFP-HDAC5 was visualized by fluorescence microscopy.
C, D, Cos7 cells were transfected with GFP-HDAC5-WT or GFP-HDAC5-S280D and then exposed to PMA for 3 hours. GFP-HDAC5-S280D but not GFP-HDAC5-WT was resistant to PMA-induced nuclear export. *, p<0.05 versus without PMA, n=4. E, F, Cos7 cells were transfected with Flag-HDAC5-WT or Flag-HDAC5-S280A mutant, and then pretreated with forskolin followed with the exposure to PMA. Phosphorylation of HDAC5 in cell lysates was analyzed by immunoblotting with phospho-specific HDAC5 antibodies that recognize the HDAC5 phosphorylated at Ser259 (E) and Ser498 (F). G, H, Cos7 cells were transfected with Flag-HDAC5-WT, Flag-HDAC5-S280A or Flag-HDAC5-S280D, and then pretreated with forskolin, followed with the exposure to PMA. Coimmunoprecipitation of Flag-HDAC5 in cell lysates and then immunoblotting with anti-14-3-3 beta and anti-Flag antibodies in immunoprecipitates were performed. 14-3-3 in total cell lysates (5% of the input) was determined by immunoblotting with anti-14-3-3 antibodies. Representative blots are shown, n=3.
The cells were fixed and GFP-HDAC5 localization was analyzed by fluorescence microscopy.
For analysis of GFP-HDAC5 subcellular localization in NRVMs and Cos7 cells, cells were plated in the presence of adenovirus (multiplicity of infection, 50 to 100) on 35 mm dishes containing DMEM plus 10% FBS as previously described (Vega R B, et al. (2004) Protein kinases C and D mediate agonist-dependent cardiac hypertrophy through nuclear export of histone deacetylase 5. Mol Cell Biol 24(19):8374-8385).
(§2) After 24 hour culture, cells were maintained in serum-free DMEM medium for additional 24 hours, and then exposed to various inducers or inhibitors (for 30 minutes) prior to PE or PMA stimulation for indicated times. The cells were washed with PBS and fixed with 3.7% formaldehyde in PBS. Images were captured at a magnification of ×60, using a fluorescence microscope (Olympus BX51) equipped with a digital camera and Spot software system (RT Color Diagnostic Instruments). For analysis of the myocyte marker, sarcomeric α-actinin antibody and DAPI in neonatal cardiomyocyte, immunocytochemistry were performed according to a standard protocol. For subcellular localization of endogenous HDAC5 in cardiomyocyes, we fixed cells and used the detergent Saponin (Sigma, 84510) to make cells permeable, and then performed immunocytochemistry with anti-HDAC5 antibody (Santa Cruz, sc-11419). For subcellular localization of HDAC5, total around 200 cells were counted in each condition. For cardiomyocyte size, total myocyte surface areas were calculated using NIH Image J software, and expressed as the average of 100 randomly selected cells per condition.

HDAC5 nuclear export [2] = assay: PE-induced HDAC5 nuclear export in neonatal rat ventricular cardiomyocytes (NRVMs); type: cell-based
Procedure: as §1
(§3) The cells were fixed and GFP-HDAC5 localization was analyzed by fluorescence microscopy. α-actinin was detected by immunofluorescence using an antibody against α-actinin and a fluorescein-conjugated secondary antibody. The nuclei were stained with DAPI.
as §3, with “DAPI. B, PKA expression in cell lysates were determined by Western blot using PKA antibody.” for “DAPI.”
The cells were fixed and endogenous HDAC5 localization was analyzed by fluorescence microscopy. HDAC5 and α-actinin was detected by immunocytochemistry with antibody against HDAC5 and α-actinin.
The cells were fixed and GFP-HDAC5 subcellular localization was analyzed by fluorescence microscopy and stained with an α-actinin antibody and DAPI.
Cos7 cells were grown in Dulbecco's Modified Eagle's Medium (DMEM) supplemented with fetal bovine serum (10%), 1-glutamine and penicillin/streptomycin. Primary cultures of neonatal rat cardiac ventricular myocytes (NRVMs) from 1- to 2-day-old Sprague-Dawley rats (Charles River Laboratories) were prepared. In brief, NRVMs were dispersed from the ventricles by digestion with collagenase type II (Worthington). Cells were cultured in Dulbecco's modified Eagle's medium (DMEM) supplemented with 1,000 mg/L D-glucose, L-glutamine, and 110 mg/L sodium pyruvate (GIBCO), fetal bovine serum (10%), and penicillin/streptomycin at 37° C. in a 5% CO2 humidified atmosphere for 2-3 days. For inducer or inhibitor studies, cells were pretreated with various inducers or inhibitors for 30 min in serum-free medium. Primary cultures of adult rat cardiomyocytes were prepared from 200-250g male Sprague-Dawley rats. Briefly, rats were anesthetized, hearts excised and placed in Krebs buffer and perfused and digested with endotoxin-free collagenase II (Worthington). This protocol typically yielded approximately 4×10^6 cells per heart, with ˜85% surviving, rod-shaped Ca2+-tolerant cells. Myocytes were allowed to attach to 20 μg/ml laminin coated plates in Modified Eagle Medium (MEM) containing 2.5% FBS, 25 mmol/L HEPES, 5 mmol/L taurine, 2 mmol/L carnitine, 2 mmol/L creatinine, 100 IU/ml penicillin, and 100 μg/ml streptomycin for 2 hrs before replacing with serum-free MEM containing 25 mmol/L HEPES, 5 mmol/L taurine, 2 mmol/L carnitine, 2 mmol/L creatinine, 100 IU/ml penicillin, and 100 μg/ml streptomycin.
Adenoviruses encoding Flag-tagged HDAC5 wild-type (WT), GFP-tagged HDAC5-WT, and YFP-tagged HDAC7-WT were generated as described previously (Ha C H, et al. (2008) Protein Kinase D-dependent Phosphorylation and Nuclear Export of Histone Deacetylase 5 Mediates Vascular Endothelial Growth Factor-induced Gene Expression and Angiogenesis. J Biol Chem 283(21):14590-14599; Ha C H et al. (2008) VEGF stimulates HDAC7 phosphorylation and cytoplasmic accumulation modulating matrix metalloproteinase expression and angiogenesis. Arterioscler Thromb Vasc Biol 28(10):1782-1788). Adenovirus expressing GFP-tagged HDAC5-S280A mutant, GFP-tagged HDAC5-S280D mutant and Flag-tagged HDAC5-S280A mutant were generated by using ViraPower Adenoviral Expression System (Invitrogen) according to the manufacturer's protocol. Adenovirus containing β-galactosidase (LacZ) or GFP was used as a control. […]

[3] = tested on: ANF, β-MHC, α-SMA expression; assay: RT-PCR of cardiac fetal gene expression in NRVMs; type: cell-based, rat; conditions: NRVMs with GFP-HDAC5-WT; PE 24 hours
Procedure: The mRNA was extracted from the cell lysates and then RT-PCR with the primers for ANF, β-MHC, α-SMA, and GADPH (internal control) was performed. *, p<0.05 versus PE+Ad-GFP; #, p<0.05 versus PE+GFP-HDAC5-WT, n=4.
The mRNA was extracted from the cell lysates, and quantitative RT-PCR with the primers for ANF and GADPH (internal control) were performed as described in the Examples. Quantitative data are shown (n=4).
Total RNA was isolated from NRVM using TRIzol (Invitrogen Corp.). Firststrand cDNA was synthesized with the SuperScript Preamplification System (Gibco-BRL). cDNA was amplified by PCR for 30 cycle (Applied Biosystem) as described previously (4, 5). Rat GAPDH served as an internal control. The following oligonucleotide primers were used in this study: rat ANF, sense 5′-[…]-3′ (SEQ ID NO:11) and antisense 5′-[…]-3′(SEQ ID NO:12) rat α-SMA, sense 5′-[…]-3′ (SEQ ID NO:13) and antisense 5′-[…]-3′ (SEQ ID NO:14); rat β-MHC (myosin heavy chain), sense 5′-[…]-3′ (SEQ ID NO:15) and antisense 5′-[…]-3′ (SEQ ID NO:16); rat GAPDH, sense 5′-[…]-3′ (SEQ ID NO:17) and antisense 5′-[…]-3′ (SEQ ID NO:18). Experiments were repeated three times.

NRVMs = assay: Cardiomyocyte hypertrophy (cell size, α-actinin immunostaining) in NRVMs; type: cell-based, rat
From the text: A-H, Cardiomyocyte size was detected by immunostaining with anti-α-actinin antibody. […] The cells were fixed and analyzed for GFP-HDAC5 localization, α-actinin staining and nuclear DAPI staining *, p<0.05 versus without PE; #, p<0.05 versus with PE alone. I, Schematic model for PKA-dependent regulation of HDAC5 subcellular localization and gene transcription.
Cardiomyocyte protein marker α-actinin was detected by immunofluorescence using antibody against α-actinin and fluorescein-conjugated secondary antibody.
as §2

HDAC7 nuclear export = assay: PMA-induced YFP-HDAC7 nuclear export in Cos7 cells; type: cell-based
Procedure: Transient transfection of plasmid DNA was performed using lipofectamine 2000 (Invitrogene, Carlsbad, Calif.) and 0.5 μg of the indicated plasmids.

GST-HDAC5-WT (273-286) = tested on: T1, GST-HDAC5-WT (273-286)
T1 sequence: KVAERRSSPLLRRK

[4] = NRVMs with GFP-HDAC5-WT, PE 24 hours

Sequence of Myc-HDAC5 AA 1-360 (chain, as listed by the source): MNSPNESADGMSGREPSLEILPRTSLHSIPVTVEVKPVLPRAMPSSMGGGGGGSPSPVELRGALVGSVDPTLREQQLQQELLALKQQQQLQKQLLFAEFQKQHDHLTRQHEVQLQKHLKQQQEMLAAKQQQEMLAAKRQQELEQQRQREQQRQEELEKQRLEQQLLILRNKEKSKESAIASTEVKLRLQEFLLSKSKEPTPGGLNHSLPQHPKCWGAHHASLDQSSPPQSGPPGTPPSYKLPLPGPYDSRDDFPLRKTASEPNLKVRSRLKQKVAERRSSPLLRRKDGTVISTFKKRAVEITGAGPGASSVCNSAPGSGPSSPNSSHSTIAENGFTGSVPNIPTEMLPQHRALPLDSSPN

PKA Inhibitor 14-22 Amide (SGRTGRRNA-NH2; UniProt P61925 14-22, looked up, fragment) [PKI]
effect on the inhibition of HDAC5 nuclear export by forskolin and cAMP (HDAC5 nuclear export [1]; GFP-HDAC5, PKI pretreatment, then forskolin or cAMP, then PMA 3 hours): abolished the inhibition of forskolin and cAMP on HDAC5 nuclear export
effect on the inhibitory effects of cAMP on PE-induced HDAC5 nuclear export (HDAC5 nuclear export [2]; NRVMs, GFP-HDAC5, PKA inhibition, then cAMP, PE 3 hours): abolished the inhibitory effects of cAMP on PE-induced HDAC5 nuclear export

CNC[C@H](O)c1cccc(O)c1 [PE, R-(−)-Phenylephrine]
expression of ANF, β-MHC and α-SMA (stimulus alone) [3]: significantly increased expression of ANF, β-MHC and α-SMA
cell size (stimulus alone) (NRVMs; [4]): increased cell size
HDAC5 localization (stimulus alone) (HDAC5 nuclear export [2]; [4]): HDAC5 nuclear export

CC(C)NCC(O)c1ccc(O)c(O)c1 (stereo not shown) [isoproterenol]
PMA-induced HDAC5 nuclear export (HDAC5 nuclear export [1]): inhibited HDAC5 nuclear export
PE-stimulated HDAC5 nuclear export (HDAC5 nuclear export [2]; NRVMs, adenoviral GFP-HDAC5, 30 min pretreatment, PE 10 μM 3 hours): markedly inhibited PE-stimulated HDAC5 nuclear export

C=C[C@@]1(C)CC(=O)[C@]2(O)[C@@]3(C)[C@@H](O)CCC(C)(C)[C@@H]3[C@H](O)[C@H](OC(C)=O)[C@@]2(C)O1 [forskolin]
PMA-induced nuclear export of YFP-HDAC7 (WT) (HDAC7 nuclear export): no inhibitory effect

CC(C)Cn1c(=O)n(C)c(=O)c2[nH]cnc21 [IBMX, 3-isobutyl-1-methylxanthine]
PMA-induced HDAC5 nuclear export (HDAC5 nuclear export [1]): inhibited HDAC5 nuclear export

CCCCCC[C@@H]([C@@H](C)O)n1cnc2c(N)ncnc21 (racemic) [EHNA, erythro-9-(2-hydroxy-3-nonyl)adenine]
PMA-induced HDAC5 nuclear export (HDAC5 nuclear export [1]): inhibited HDAC5 nuclear export

purified catalytic subunit of protein kinase A (PKA-CA, Calbiochem)
in vitro kinase assay, 32P autoradiography (Myc-HDAC5 AA 1-360): the similar phosphorylation by PKA-CA in an in vitro kinase assay (FIG. 14) was also detected
in vitro kinase assay, 32P autoradiography (GST-HDAC5-WT (273-286)): recombinant PKA-CA phosphorylated the GST-tagged peptide of HDAC5-WT

CN(C(=O)CCCOc1ccc2[nH]c(=O)ccc2c1)C1CCCCC1 [cilostamide]
PMA-induced HDAC5 nuclear export (HDAC5 nuclear export [1]): did not block HDAC5 nuclear export

CCCC(=O)Nc1nc2c(ncn2[C@@H]2O[C@@H]3COP(=O)(O)O[C@H]3[C@H]2OC(=O)CCC)c(=O)[nH]1 [cGMP, DibutyrylcGMP]
PMA-induced HDAC5 nuclear export (HDAC5 nuclear export [1]): did not block HDAC5 nuclear export

COc1ccc(C2CNC(=O)C2)cc1OC1CCCC1 (stereo not shown) [rolipram]
PMA-induced HDAC5 nuclear export (HDAC5 nuclear export [1]): inhibited HDAC5 nuclear export
PE/Angiotensin II-induced cardiomyocyte hypertrophy (NRVMs; NRVMs, forskolin 10 μM, cAMP 500 μM, Rolipram 10 μM 30 min, PE or Angiotensin II 24 hours): inhibit PE/Angiotensin II-induced cardiomyocyte hypertrophy
